From patent US6229029A, “11β-aryl substituted 14,17-ethanoestratriens, method for the production of these compounds and their use in the production of medicaments” (Schering Aktiengesellschaft, priority 1997, dated 2001)

Tests used:
[1] = tested on: bone (distal femur / proximal tibia) of ovariectomized rats; assay: Bone studies in ovariectomized rats: bone density by pQCT; format: in vivo, rat; settings: for % of Action of E2 (bone density femur) / Bone Density Femur: Table 4, distal femur; for % of Action of E2 (bone density femur) / Bone Density Femur / Bone Density / % of Action of E2 (bone density): 28 days; for Bone Density / % of Action of E2 (bone density): Table 5, proximal tibia
human estrogen receptor = biological target: T1, human estrogen receptor (Homo sapiens, UniProt P03372); assay: Transactivation assay in HeLa cells (antiestrogenic action, vit-TK-CAT reporter); format: cell-based; settings: in the presence of 0.1 nM estradiol, read-out: Antagonism IC50, HELA
T1 construct: expressed in transfected cells; host or cells: HeLa cells
T1 sequence (P03372 1-595): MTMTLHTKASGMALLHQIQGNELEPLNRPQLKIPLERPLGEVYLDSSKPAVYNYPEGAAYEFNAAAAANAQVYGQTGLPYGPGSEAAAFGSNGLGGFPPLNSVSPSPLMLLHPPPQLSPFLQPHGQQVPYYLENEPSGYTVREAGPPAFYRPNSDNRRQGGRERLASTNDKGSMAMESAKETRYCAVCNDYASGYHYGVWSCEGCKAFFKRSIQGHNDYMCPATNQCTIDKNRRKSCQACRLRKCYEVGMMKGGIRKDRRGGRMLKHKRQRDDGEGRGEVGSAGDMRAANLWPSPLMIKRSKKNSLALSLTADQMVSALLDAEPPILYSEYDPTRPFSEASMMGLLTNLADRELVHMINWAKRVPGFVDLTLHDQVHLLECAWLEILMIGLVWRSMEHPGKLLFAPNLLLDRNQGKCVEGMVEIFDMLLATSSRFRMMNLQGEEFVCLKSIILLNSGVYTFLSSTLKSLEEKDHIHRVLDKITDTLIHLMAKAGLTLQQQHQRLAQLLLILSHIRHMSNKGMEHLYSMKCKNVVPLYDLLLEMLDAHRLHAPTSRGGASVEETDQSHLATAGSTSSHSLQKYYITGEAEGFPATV

estrogen receptors = biological target: T2, estrogen receptors (Homo sapiens, UniProt P03372); assay: Transactivation assay in HeLa cells (partial estrogenic action, rPR-TK); format: cell-based; settings: rPR-TK reporter, read-out: Agonism HELA (rPR-TK)
T2 construct: expressed in transfected cells; host or cells: HeLa cells
Description: The partial estrogenic action was also determined by transactivation assays. HeLa cells were […] with estrogen receptors and a reporter gene, which consists of the estrogen-response element of the progesterone receptor and the CAT-gene. The test was performed as described: Savouret et al., EMBO J. 10, 1875-1883 (1991).

[2] = tested on: uterus of ovariectomized rats; assay: Uterus weight in ovariectomized rats of the bone studies; format: in vivo, rat
Description: (§1) 3-month-old female rats are ovariectomized and treated once daily with the test compound immediately after the operation for 28 days. The administration is done subcutaneously in castor oil/benzyl benzoate or arachis oil/ethanol. The animals are sacrificed on the day after the last administration, and femurs, tibiae and uteri are removed. The uteri are weighed, fixed and worked up for histological studies. The determination of the bone density is carried out ex vivo on prepared long bones with use of pQCT (Quantitative Computer Tomography). The measurements are performed at a distance of 5-7 mm from the ball of the joint on the distal femur or the proximal tibia.

uterus of infant rats = assay: Anti-uterus growth test in infant rats (antiestrogenic action); format: in vivo, rat; settings: with 0.3 μg/animal/day 17β-estradiol
Excerpt: The influence of the compounds according to the invention on the uterus was examined in the uterus growth test (estrogenic action) and in the anti-uterus growth test (antiestrogenic action), both performed on infant rats.
The uterus of infant estrogen-substituted rats can be used as a test model to detect a direct action of substances with antiestrogenic properties. The parameter of the estrogenic action is the uterus growth that is induced by estradiol in infant rats and that is inhibited by simultaneous administration of a substance with antiestrogenic action.
The test substances are treated s.c. on 3 successive days (d1-d3) in combination with a substitution dose of 0.3 μg/animal/day of 17β-estradiol. As a positive control, 17β-estradiol alone is used; the vehicle group is used as a negative control. On day 4 (d4), the animals are sacrificed, uteri and vaginae are prepared outside and weighed. The organ weights are converted into mg/100 g of body weight, and then the mean and the standard deviation for each dosage are calculated. The inhibition of the uterus or vaginal growth that is induced by 17β-estradiol is indicated in % as inhibition.

bone / uterus of rats = assay: Dissociation of bone action/uterus action (FIG. 7); format: in vivo, rat; settings: bone action vs uterus epithelial height, relative to 17β-estradiol
Excerpt: There, for compounds A, B and V, their bone-protecting actions are compared to the action of estrogen on the uterus (parameter: uterus epithelial height) as a function of dosage, in each case relative to the action of 17β-estradiol.

[3] = tested on: trabecular bone (proximal tibia) of ovariectomized rats; assay: Bone studies in ovariectomized rats: trabecular bone surface area (TB/TV), histological, proximal tibia; format: in vivo, rat; settings: Table 4, proximal tibia, 28 days
Description: as §1
As an alternative, the action on the bone is determined by measuring the trabecular bone surface area of the secondary spongiosa in histological preparations of the distal femur or the proximal tibia. The result is expressed as the proportion, in percent, of the trabecular bone surface area in the measured total bone surface area ([…]). The bone density that is measured with use of QCT and the trabecular bone surface area that is determined in the histological section correlate well to one another. A comparison of the two measurement variables is therefore permissible.
About 50% of the bone density of the animals is lost by the ovariectomy. […] In Table 4 and FIG. 2, the results of this test for doses of 0.1-100 μg/animal/day are presented. The bone density was measured on the distal femur; for comparison, the trabecular bone surface area in the proximal tibia was measured. The data that are contained in Table 4 mean specifically:
TB/TV trabecular bone surface area/total bone surface area; histologically determined
For compound B according to the invention, their bone-protecting action was also determined (Table 6). For this purpose, the parameter of TB/TV was determined, which, however, with respect to the informational value for the bone-protecting activity correlates well to the parameter of BMD-qCT that is determined for compounds A and V. This can be ascertained from Table 4; both parameters were determined for compound A.

SMILES: C[C@]12C[C@H](c3ccc(OCCCCCS(=O)(=O)Cc4ccccn4)cc3)[C@@H]3c4ccc(O)cc4CC[C@H]3[C@]13CC[C@@]2(O)CC3 [Compound A]
- % of Action of E2 (bone density femur) ([1]; 0.1 μg/animal/day s.c.): 14%
- Bone Density Femur ([1]; 0.1 μg/animal/day s.c.): 296.4 mg Ca/ccm
- % of Action of E2 (bone density femur) ([1]; 1 μg/animal/day s.c.): 31%
- Bone Density Femur ([1]; 1 μg/animal/day s.c.): 309.6 mg Ca/ccm
- % of Action of E2 (bone density femur) ([1]; 10 μg/animal/day s.c.): 60%
- Bone Density Femur ([1]; 10 μg/animal/day s.c.): 331.3 mg Ca/ccm
- % of Action of E2 (bone density femur) ([1]; 100 μg/animal/day s.c.): 50%
- Bone Density Femur ([1]; 100 μg/animal/day s.c.): 324.1 mg Ca/ccm
- Bone Density ([1]; 100 μg/animal/day s.c.): 361.8 mg Ca/ccm
- % of Action of E2 (bone density) ([1]; 500 μg/animal/day s.c.): 49%
- Bone Density ([1]; 500 μg/animal/day s.c.): 336.3 mg Ca/ccm
- % of Action of E2 (bone density) ([1]; 2000 μg/animal/day s.c.): 65%
- Bone Density ([1]; 2000 μg/animal/day s.c.): 348.8 mg Ca/ccm
- effect of dose increase on bone action (in words) ([1]; above 100 μg/animal/day, proximal tibia): can no longer be increased by increasing the dose
- protective action in comparison to 17β-estradiol ([1]; dose range between 10 and 100 μg/animal/day s.c.): 50-60%
- degradation of bone density after ovariectomy (in words) ([1]; ovariectomized rats, 0.1-100 μg/animal/day): prevented or inhibited
- dose with which an action of about 80% of 17β-estradiol on trabecular bone is achieved ([1]; proximal tibia, s.c.): 100 μg/animal/day
- potency relative to comparison compound V, bone-protecting action ([1]; proximal tibia, vs compound V): 3 factor
- IC50 (human estrogen receptor): 0.4 nM
- Emax (estrogen receptors): 16%
- stimulation of uterus weight (in words) ([2]; FIG. 3, test of Table 4, 0.1-100 μg/animal/day): stimulates the uterus weight, but at most does so marginally
- stimulation of uterus weight (in words) ([2]; FIG. 5, test of Table 5, all tested dosages 100-2000 μg/animal/day): stimulates the uterus weight only marginally in all tested dosages
- Uterus Weight % of Inhibition (uterus of infant rats; 0.1 mg/kg s.c.): 33%
- Uterus Weight % of Inhibition (uterus of infant rats; 1 mg/kg s.c.): 88%
- Uterus Weight % of Inhibition (uterus of infant rats; 10 mg/kg s.c.): 121%
- dissociation of bone-protecting action from estrogen action on the uterus (in words) (bone / uterus of rats): most dissociated
- TB/TV (Tibia) ([3]; 0.1 μg/animal/day s.c.): 17.2%
- % of Action of E2 (TB/TV tibia) ([3]; 1 μg/animal/day s.c.): 17%
- TB/TV (Tibia) ([3]; 1 μg/animal/day s.c.): 18.9%
- % of Action of E2 (TB/TV tibia) ([3]; 10 μg/animal/day s.c.): 35%
- TB/TV (Tibia) ([3]; 10 μg/animal/day s.c.): 22.5%
- % of Action of E2 (TB/TV tibia) ([3]; 100 μg/animal/day s.c.): 62%
- TB/TV (Tibia) ([3]; 100 μg/animal/day s.c.): 27.0%
- % of Action of E2 (TB/TV tibia) ([3]; cell empty for 17β-estradiol, 0.1 μg/animal/day s.c.): 4.1%
